Reference: patent publication US20260216294A1, “BETA 2-ADRENERGIC RECEPTOR AGONISTS FOR TREATMENT OR PREVENTION OF MUSCLE WASTING” (ATROGI AB, priority 2023, published 2026)

What was measured:
L6-myotubes [1] = test: Glucose uptake in differentiated L6-myotubes (Biological Example 2); type: cell-based; conditions: for Emax at 10 µM: read-out: Biological example 2 (GU)
In short: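 Uptake was quantified as radioactivity in 0.2 M NaOH lysates after a 10 min pulse of 50 nM ^3H-2-deoxyglucose. The pulse followed two agonist exposures at 1×10^−5 M final (isoprenaline or test compound): 1 h 40 min, then 20 min in glucose-free medium after washing. L6 myotubes had been starved overnight in medium with 0.5% fatty-acid-free BSA.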

L6-myotubes [2] = test: Measurement of intracellular cAMP levels in differentiated L6-myotubes (Biological Example 3); type: cell-based; conditions: for Emax at 10 µM: 0.25 h
In short: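 Intracellular cAMP quantified by AlphaScreen after ethanol extraction and lysis of L6 myotubes. Cells were serum-starved overnight, then exposed for 15 min to compound (final 1×10^−5 M) or isoprenaline in IBMX-containing (1 mM) HBSS buffer, pH 7.4.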

[3] = glucose uptake, compound at 10 μM relative to isoproterenol at 10 μM
[4] = intracellular cAMP, compound at 10 μM relative to isoproterenol at 10 μM
[5] = glucose uptake in differentiated L6-myotubes, compound at 10 μM, activity relative to isoproterenol at 10 μM
[6] = intracellular cAMP in differentiated L6-myotubes, compound at 10 μM, activity relative to isoproterenol at 10 μM

SMILES	Emax at 10 µM (L6-myotubes [1]; [5]) [%]	Emax at 10 µM (L6-myotubes [2]; [6]) [%]	further results
CC(C)(C)NC[C@H](O)c1ncccc1Cl [Compound 146, (S)-2-(tert-butylamino)-1-(3-chloro-2-pyridyl)-1-ethanol]			Emax at 10 µM (L6-myotubes [1]; [3]): 25 to 50%; Emax at 10 µM (L6-myotubes [2]; [4]): < 25%
CO[C@H]1CC[C@@H](C(C)(C)NC[C@H](O)c2cccc(F)c2)CC1 [Compound 251, (R)-1-(m-fluorophenyl)-2-{1-methyl-1-[(1s,4S)-4-methoxycyclohexyl]ethylamino}-1-ethanol]	< 25	< 25	
CCC[C@H]1CCC[C@H]([C@H](O)c2ccccc2Cl)N1 [Compound 135, (R)-[(2R,6S)-6-propyl-2-piperidyl](o-chlorophenyl)methanol]			Emax at 10 µM (L6-myotubes [1]; [3]): 25 to 50%; Emax at 10 µM (L6-myotubes [2]; [4]): < 25%
CC(C)(C[C@H]1CC[C@@H](N)CC1)NC[C@H](O)c1cncc(F)c1 [Compound 466]	50 to 75	< 25	
CC(C)(C[C@H]1CC[C@H](NC(=O)C2CCC2)CC1)NC[C@H](O)c1cccc(F)c1 [Compound 431]	> 75	50 to 75	
CO[C@H]1CC[C@@H](CNC[C@H](O)c2cccc(F)c2)CC1 [Compound 245, (R)-1-(m-fluorophenyl)-2-({[(1s,4S)-4-methoxycyclohexyl]methyl}amino)-1-ethanol]	50 to 75	< 25	
CC1(C)C[C@@H]([C@H](O)c2cncc(F)c2)N1 [Compound 216]	25 to 50	< 25	
CCC[C@H](C)NC[C@H](O)c1cccc(F)c1 [Compound 51]			Emax at 10 µM (L6-myotubes [1]; [3]): > 75%; Emax at 10 µM (L6-myotubes [2]; [4]): < 25%
CCCS(=O)(=O)N[C@H]1CC[C@@H](CC(C)(C)NC[C@H](O)c2cncc(F)c2)CC1 [Compound 523, (R)-2-{1,1-dimethyl-2-[(1s,4S)-4-(propylsulfonylamino)cyclohexyl]ethylamino}-1-(5-fluoro-3-pyridyl)-1-ethanol]	50 to 75	< 25	
CNS(=O)(=O)[C@H]1CC[C@H](CC(C)(C)NC[C@H](O)c2cccc(F)c2)CC1 [Compound 476]	> 75	25 to 50	
CC(C)(CC[C@H]1CC[C@H](O)CC1)NC[C@H](O)c1cccc(F)c1 [Compound 290, (R)-2-{1,1-dimethyl-3-[(1r,4S)-4-hydroxycyclohexyl]propylamino}-1-(m-fluorophenyl)-1-ethanol]	25 to 50	< 25	
CCCCNC[C@H](O)c1ccc(F)cc1 [Compound 46, (R)-2-(butylamino)-1-(p-fluorophenyl)-1-ethanol]			Emax at 10 µM (L6-myotubes [1]; [3]): 50 to 75%; Emax at 10 µM (L6-myotubes [2]; [4]): < 25%
CC12CC(C1)[C@@H]([C@H](O)c1cccc(Cl)c1)N2 [Compound 209]	25 to 50	< 25	
CCC[C@@H]1CCC[C@H]([C@@H](O)c2cccc(O)c2)N1 [Compound 137, (S)-[(2R,6R)-6-propyl-2-piperidyl](m-hydroxyphenyl)methanol]			Emax at 10 µM (L6-myotubes [1]; [3]): 25 to 50%; Emax at 10 µM (L6-myotubes [2]; [4]): < 25%
CC(=O)N(Cc1ccccc1)[C@H]1CC[C@@H](C[C@@H]2CC[C@H]([C@@H](O)c3cccc(F)c3)N2)CC1 [Compound 479, N-[(1R,4s)-4-({(2S,5R)-5-[(S)-(m-fluorophenyl) hydroxymethyl]-2-pyrrolidinyl}methyl)cyclohexyl]-N-benzylacetamide]	< 25	< 25	
CC12CC(C1)[C@@H]([C@H](O)c1cccc(N)c1F)N2 [Compound 244, (R)-{(S)-1-methyl-2-azabicyclo[[2.1.1]]hex-3-yl}(3-amino-2-fluorophenyl)methanol]	50 to 75	< 25	
CC(C)(NC[C@H](O)c1cncc(F)c1)[C@H]1CC[C@H](OCc2ccccc2)CC1 [Compound 281, (R)-1-(5-fluoro-3-pyridyl)-2-{1-methyl-1-[(1r,4R)-4-(benzyloxy)cyclohexyl]ethylamino}-1-ethanol]	50 to 75	< 25	
CO[C@H]1CC[C@H](C[C@@H]2CC[C@H]([C@@H](O)c3ccccc3F)N2)CC1 [Compound 336, (S)-[(2R,5S)-5-{[(1r,4S)-4-methoxycyclohexyl]methyl}-2-pyrrolidinyl] (o-fluorophenyl)methanol]	25 to 50	< 25	
COC(=O)[C@H]1CC[C@H](CC(C)(C)NC[C@H](O)c2cccc(F)c2)CC1 [Compound 353, methyl (1R,4r)-4-{2-[(R)-2-(m-fluorophenyl)-2-hydroxyethylamino]-2-methylpropyl} cyclohexanecarboxylate]	> 75	< 25	
O[C@H](c1cccc(F)c1)C12CCC(C/C=C/c3ccccc3)(CC1)N2 [Compound 534]	> 75	< 25	

SMILES	Emax at 10 µM (L6-myotubes [1]; [5]) [%]	Emax at 10 µM (L6-myotubes [2]; [6]) [%]	further results
CCCCCCNCC(O)c1ccc(O)cc1 (centres unmarked) [Compound 17, 2-(hexylamino)-1-(p-hydroxyphenyl)-1-ethanol]			Emax at 10 µM (L6-myotubes [1]; [3]): 25 to 50%; Emax at 10 µM (L6-myotubes [2]; [4]): < 25%
CCC[C@@H]1CCCC[C@H]([C@H](O)c2cncc(F)c2)N1 [Compound 219, (R)-[(2R,7R)-7-propyl-2-azepanyl](5-fluoro-3-pyridyl)methanol]	< 25	< 25	
CC1(C)CC[C@H]([C@@H](O)c2cccc(Cl)c2)N1 [Compound 153, (S)-[(R)-5,5-dimethyl-2-pyrrolidinyl](m-chlorophenyl)methanol]			Emax at 10 µM (L6-myotubes [1]; [3]): 25 to 50%; Emax at 10 µM (L6-myotubes [2]; [4]): < 25%
CN(C)S(=O)(=O)[C@H]1CC[C@H](CC(C)(C)NC[C@H](O)c2cncc(F)c2)CC1 [Compound 465]	50 to 75	25 to 50	
CC(=O)N[C@H]1CC[C@H](CC(C)(C)NC[C@H](O)c2cncc(F)c2)CC1 [Compound 357]	> 75	< 25	
O[C@H](c1cccc(F)c1)C12CCC(COCc3ccc(Cl)cc3)(CC1)N2 [Compound 396, (R)-(4-{[(p-chlorophenyl)methoxy]methyl}-7-azabicyclo[[2.2.1]]hept-1-yl)(m-fluorophenyl)methanol]	> 75	< 25	
CC(C)(C[C@H]1CC[C@H](N)CC1)NC[C@H](O)c1cccc(F)c1 [Compound 371]	> 75	< 25	
COc1ccc(CCC23CCC([C@@H](O)c4cncc(F)c4)(CC2)N3)cc1 [Compound 541, (S)-(5-fluoro-3-pyridyl){4-[2-(p-methoxyphenyl)ethyl]-7-azabicyclo[[2.2.1]]hept-1-yl}methanol]	< 25	< 25	
CO[C@H]1CC[C@H](CC(C)(C)NC[C@H](O)c2cncc(F)c2)CC1 [Compound 250, (R)-2-{1,1-dimethyl-2-[(1r,4R)-4-methoxycyclohexyl]ethylamino}-1-(5-fluoro-3-pyridyl)-1-ethanol]	50 to 75	< 25	
CC(C)(C[C@H]1CC[C@@H](O)CC1)NC[C@H](O)c1cncc(F)c1 [Compound 301, (R)-2-{1,1-dimethyl-2-[(1s,4S)-4-hydroxycyclohexyl]ethylamino}-1-(5-fluoro-3-pyridyl)-1-ethanol]	> 75	< 25	
O[C@@H](c1cncc(F)c1)C12CCC(COCc3ccc(F)cc3)(CC1)N2 [Compound 442, (S)-(4-{[(p-fluorophenyl)methoxy]methyl}-7-azabicyclo[[2.2.1]]hept-1-yl)(5-fluoro-3-pyridyl)methanol]	25 to 50	< 25	
CO[C@H]1CC[C@@H](CCNC[C@H](O)c2cccc(F)c2)CC1 [Compound 237, (R)-1-(m-fluorophenyl)-2-{2-[(1s,4S)-4-methoxycyclohexyl]ethylamino}-1-ethanol]	50 to 75	< 25	
CC(=O)N(C)[C@H]1CC[C@H](CC(C)(C)NC[C@H](O)c2cncc(F)c2)CC1 [Compound 506]	> 75	25 to 50	
CC1(C)CCC[C@H]([C@H](O)c2ccccc2F)N1 [Compound 177, (R)-[(R)-6,6-dimethyl-2-piperidyl](o-fluorophenyl)methanol]			Emax at 10 µM (L6-myotubes [1]; [3]): 50 to 75%; Emax at 10 µM (L6-myotubes [2]; [4]): < 25%
CO[C@H]1CC[C@H](C[C@@H]2CC[C@H]([C@H](O)c3cccc(F)c3)N2)CC1 [Compound 326, (R)-[(2R,5S)-5-{[(1r,4S)-4-methoxycyclohexyl]methyl}-2-pyrrolidinyl] (m-fluorophenyl)methanol]	> 75	< 25	
CC(=O)N[C@H]1CC[C@@H](CC(C)(C)NC[C@H](O)c2cccnc2C)CC1 [Compound 436]	50 to 75	< 25	
CCC[C@H]1CCC[C@@H]([C@H](O)c2cccc(O)c2)N1 [Compound 122]			Emax at 10 µM (L6-myotubes [1]; [3]): 50 to 75%; Emax at 10 µM (L6-myotubes [2]; [4]): < 25%
CO[C@H]1CC[C@H](CCC23CCC([C@@H](O)c4cccc(F)c4)(CC2)N3)CC1 [Compound 410]			Biological example 2 (GU) (L6-myotubes [1]; [5]): ++ (if it is between 75 and 50% it is denoted with ++); Biological example 3 (CAMP) (L6-myotubes [2]; [6]): − (if it less than 25% it is denoted with −)
CO[C@H]1CC[C@@H](CC(C)(C)NC[C@H](O)c2cccc(F)c2)CC1 [Compound 247, (R)-2-{1,1-dimethyl-2-[(1s,4S)-4-methoxycyclohexyl]ethylamino}-1-(m-fluorophenyl)-1-ethanol]	> 75	< 25	
CCC[C@@H]1CCC[C@H]([C@H](O)c2cccc(O)c2)N1 [Compound 45]			Emax at 10 µM (L6-myotubes [1]; [3]): > 75%; Emax at 10 µM (L6-myotubes [2]; [4]): < 25%
